Where “and” joins values, the source holds several entries; their conditions need not be identical. Equal values may be shown once.
What was measured:
[1] = tested on: ISG expression in SSc PBMCs; test: SSc PBMC type I IFN signaling gene expression array, unstimulated; assay type: cell-based, human
Experimental: PBMCs in vitro experiments
Peripheral blood mononuclear cells (PBMCs) from healthy and SSc donors were separated using density gradient method (Leucosep™, Greiner Bio-One International) from EDTA anticoagulated peripheral blood; isolated cells were washed twice by PBS. PBMCs were then incubated in RPMI1640 […]
For healthy PBMCs, cells were stimulated with 20 ng/mL of IFN (+/- compounds or DMSO). For SSc PBMCs, cells were in basal conditions with no additional IFN stimulation. Cells were centrifuged at 300 g for 10 minutes. […]
RNA was extracted from cell pellets using TRIzol™ (ThermoFisher
Scientific, Waltham, MA) and processed using Quick-RNA Miniprep Kit (Zymo Research) as per the manufacturer’s instruction.
For Type I IFN signalling analysis, the human IFN I RT2 Profiler PCR Array (Qiagen, PAMM-016ZE) was performed on available RNA from healthy (n=3) and SSc (n=9) donors. RNA was converted to cDNA using RT2 First Strand Kit (Qiagen). Next, the cDNA was mixed with RT2 SYBR Green Mastermix (Qiagen, Venlo). Successful PCR performance was confirmed by assay tests for genomic DNA contamination, RNA sample quality, as well as single melt curve determination and <35 Ct for each gene, leading to validated gene expression of 67 genes. Relative expression for each gene was determined, firstly by ∆CT calculated using the geometric mean of 4 housekeeping genes (ACTB, GAPDH, HPRT1, RPLP0), followed by 2^(-∆CT), and expressed as fold change to control, according to manufacturer’s guidance. IFN2α-induced ISGs in healthy donors were determined using a Student’s t-test (two-tail distribution and equal variances) on the triplicate fold change in 2^(-ΔCT) values between […]
donors). Heatmaps were generated using the “pheatmap” function in R (v4.0.2) and RStudio (v1.3.1093) applying row scaling to standardise the expression data across samples (R core team 2020.
R Foundation for Statistical Computing). The IFN2α inducible genes determined in healthy donors […]
171-C. To account for Type I IFN signalling heterogeneity across samples, the mean 2^(-∆CT) for each […]
relative gene expression, illustrated as a fold change and visualised in log2. The Type I IFN signalling array data for the patient samples is included in Source Data Figure 6, Extended Data Fig. 9.

[2] = tested on: ISRE in THP-1 cells (TLR3 agonist polyI:C); test: THP-1 ISRE luciferase reporter, polyI:C stimulation; assay type: cell-based, human; conditions: polyI:C 1 µg/mL, 4 μM compound, 16 h
Experimental: THP-1 in vitro experiments
THP-1-DualTM cells (InvivoGen), derived from a human monocytic cell line, isolated from a patient with acute monocytic leukaemia, were cultured as per manufacturer’s guidance. Cells were seeded at 1x10^6 cells/mL in RPMI1640 media containing 10% fetal bovine serum (FBS), 1% penicillin-streptomycin (PS) (Gibco Laboratories) with DMSO (0.1%) (control) or in media containing JMS-175- […]
ng/mL) (Merck Life Science), ODN 2216 (1 µM) (Miltenyi Biotec), or Poly:IC (1 µg/mL) (InvivoGen).
Tofacitinib (Cambridge Biosciences) at 0.4 µM was used for comparison against a known JAK inhibitor.
Cells were centrifuged at 300 g for 5 minutes. Supernatant was removed and subjected to simultaneous study of the NF -κB pathway, by monitoring the activity of secreted alkaline phosphatase reporter (SEAP), and the IRF pathway, by assessing the activity o f a secreted Lucia luciferase using QUANTI - Blue ™ Solution and QUANTI -Luc™ 4 Lucia/Gaussia (InvivoGen), respectively, as per manufacturer’s instructions. Pelleted cells were used for FACS analysis using IFNα/β R1 APC-conjugated antibody or isotype control (Biotechne, FAB245A and IC002A), or unstained staining procedure with and without Zombie GreenTM (Biolegend). Samples were analysed using CytoFlex LX (Beckman) (50,000 live cells per condition). Median fluorescence intensity for APC channel gated on single cell live cells was analysed and compared as a percentage to control (no stimulation condition). […]

[3] = unstimulated PBMCs from SSc patients, one value per patient (P1-P9)

O=C(NC1C2CNCC21)c1nn(C(=O)c2c(Cl)cccc2Cl)cc1NC(=O)c1c(Cl)cccc1Cl (stereo not drawn) [FX-171-C]
ISG expression (in words) ([1]; SSc PBMCs (n = 9), 2 µM, 16 h, compared to AP-5-145): lesser effect | ADAR, Type I IFN signalling array raw data [1, 3]: 3.858 and 4.274 and 4.001 and 4.68 and 4.777 and 4.208 and 3.331 and 4.913 and 3.918 | BST2, Type I IFN signalling array raw data [1, 3]: 3.573 and 2.8591 and 2.177 and 3.614 and 3.672 and 2.327 and 3.468 and 1.591 and 2.873 | CASP1, Type I IFN signalling array raw data [1, 3]: 2.548 and 2.002 and 1.941 and 1.134 and 2.888 and 1.296 and 2.046 and 2.574 and 1.867 | CD86, Type I IFN signalling array raw data [1, 3]: 6.165 and 2.65 and 5.65 and 3.485 and 4.729 and 3.419 and 6.169 and 4.499 and 4.78 | CXCL10, Type I IFN signalling array raw data [1, 3]: 5.471 and 2.917 and 2.582 and 4.742 and 4.877 and 6.905 and 4.483 and 4.8707 and 3.923 | DDX58, Type I IFN signalling array raw data [1, 3]: 3.35 and 3.309 and 2.1354 and 2.913 and 3.785 and 3.502 and 1.974 and 1.829 and 2.968 | GBP1, Type I IFN signalling array raw data [1, 3]: 2.688 and 1.367 and 1.422 and 2.895 and 1.583 and 2.086 and 0.7206 and 2.179 and 0.5673 | IFI6, Type I IFN signalling array raw data [1, 3]: 3.893 and 2.681 and 0.9581 and 2.49 and 3.897 and 2.026 and 3.3942 and 1.435 and 1.657 | IFI16, Type I IFN signalling array raw data [1, 3]: 1.765 and 1.775 and 1.077 and 1.992 and 2.377 and 1.622 and 1.064 and 1.533 and 1.821 | IFIH1, Type I IFN signalling array raw data [1, 3]: 4.423 and 3.6 and 2.511 and 3.468 and 5.097 and 3.98 and 3.849 and 3.949 and 3.417 | IFIT1, Type I IFN signalling array raw data [1, 3]: 4.29 and 4.385 and 1.626 and 3.83 and 6.5533 and 6.518 and 4.252 and 2.844 and 3.475 | IFIT2, Type I IFN signalling array raw data [1, 3]: 4.664 and 3.908 and 1.678 and 5.248 and 5.235 and 3.764 and 3.486 and 3.028 and 3.269 | IFIT3, Type I IFN signalling array raw data [1, 3]: 3.799 and 3.675 and 1.209 and 4.928 and 5.414 and 5.436 and 3.503 and 5.877 and 2.486 | IFITM1, Type I IFN signalling array raw data [1, 3]: 0.9488 and 1.1781 and 0.3954 and 0.8994 and 1.9714 and 0.8768 and 1.144 and 1.6293 and 0.7125 | IFITM2, Type I IFN signalling array raw data [1, 3]: 4.648 and 5.173 and 4.79 and 4.974 and 4.481 and 3.9861 and 4.845 and 5.367 and 4.762 | IFITM3, Type I IFN signalling array raw data [1, 3]: 3.968 and 3.916 and 1.59 and 3.568 and 4.151 and 2.877 and 3.902 and 1.131 and 2.5357 | IRF1, Type I IFN signalling array raw data [1, 3]: 2.547 and 1.821 and 1.073 and 2.335 and 1.158 and 0.9908 and 0.6649 and 1.927 and 1.207 | IRF7, Type I IFN signalling array raw data [1, 3]: 6.802 and 6.586 and 3.986 and 5.798 and 5.443 and 4.601 and 5.372 and 4.2831 and 3.547 | IRF9, Type I IFN signalling array raw data [1, 3]: 2.19 and 2.335 and 0.975 and 2.229 and 2.461 and 1.8963 and 1.69 and 1.214 and 1.521 | ISG15, Type I IFN signalling array raw data [1, 3]: 3.986 and 3.922 and 0.692 and 4.262 and 5.477 and 7.495 and 2.508 and 1.711 and 2.311 | ISG20, Type I IFN signalling array raw data [1, 3]: 2.62 and 3.224 and 2.385 and 3.3 and 3.623 and 2.618 and 2.595 and 4.036 and 2.585 | MX1, Type I IFN signalling array raw data [1, 3]: 3.107 and 4.405 and 1.261 and 5.21 and 5.062 and 3.692 and 3.866 and 4.591 and 2.854 | MX2, Type I IFN signalling array raw data [1, 3]: 4.125 and 4.0818 and 1.607 and 3.741 and 5.0213 and 4.032 and 3.318 and 2.653 and 2.691 | MYD88, Type I IFN signalling array raw data [1, 3]: 3.738 and 3.075 and 2.51 and 2.925 and 2.927 and 2.376 and 3.074 and 1.908 and 3.454 | NMI, Type I IFN signalling array raw data [1, 3]: 2.143 and 1.85 and 1.491 and 1.973 and 3.716 and 1.264 and 1.346 and 2.497 and 2.32 | OAS1, Type I IFN signalling array raw data [1, 3]: 4.424 and 3.836 and 1.737 and 5.327 and 4.793 and 3.413 and 3.498 and 2.187 and 2.863 | OAS2, Type I IFN signalling array raw data [1, 3]: 4.608 and 3.615 and 1.642 and 3.798 and 4.119 and 3.655 and 2.504 and 2.941 and 2.821 | PML, Type I IFN signalling array raw data [1, 3]: 4.552 and 5.075 and 2.988 and 4.3611 and 4.177 and 3.436 and 3.3349 and 3.807 and 3.407 | SOCS1, Type I IFN signalling array raw data [1, 3]: 3.578 and 4.266 and 3.582 and 3.8466 and 3.6323 and 2.7 and 3.416 and 2.793 and 2.573 | STAT1, Type I IFN signalling array raw data [1, 3]: 0.977 and -0.7577 and -0.7275 and 0.7898 and -0.2011 and 0.5637 and -1.166 and 0.2201 and -0.8389 | STAT2, Type I IFN signalling array raw data [1, 3]: 3.968 and 3.159 and 2.8038 and 5.573 and 3.712 and 3.001 and 2.882 and 3.307 and 2.683 | STAT3, Type I IFN signalling array raw data [1, 3]: 6.676 and 4.39 and 1.897 and 3.494 and 2.053 and 1.773 and 1.353 and 3.435 and 1.673 | TAP1, Type I IFN signalling array raw data [1, 3]: 2.3591 and 1.9257 and 1.563 and 2.7124 and 1.578 and 1.336 and 0.8182 and 1.844 and 1.137 | TNFSF10, Type I IFN signalling array raw data [1, 3]: 3.902 and 3.285 and 2.141 and 3.031 and 3.789 and 2.995 and 3.1028 and 5.015 and 2.882 | ISRE luciferase signal in THP-1 supernatant [2]: 374 and 491 and 321
